Article PMC7714403 (JCI Insight, 2020)
Where two headings read alike, the source gives them in different places.

Assays:
Experiment in all cases: KiNativ, MOLM13 live cells
Format in all cases: cell-based
AurB = AurB (Homo sapiens, UniProt Q96GD4); settings: MOLM-13; 100 nM, 2 hours; Lys1; read-out: Inhibition vs DMSO
Procedure: (§1) Samples were analyzed by KiNativ in situ kinase profiling by ActivX Biosciences.

CDC2 = CDC2 (Homo sapiens, UniProt P06493); settings: MOLM-13, 2 h, 100 nM
Procedure: as §1

CDK5 = CDK5 (Homo sapiens, UniProt Q00535); settings: MOLM-13, 2 h, 100 nM
Procedure: as §1

GSK3A = GSK3A (Homo sapiens, UniProt P49840); settings: MOLM-13; 100 nM, 2 hours; Lys2; read-out: Inhibition vs DMSO
Procedure: as §1

IKKe = IKKe (Homo sapiens, UniProt Q14164); settings: MOLM-13; 100 nM, 2 hours; Lys1; read-out: Inhibition vs DMSO
Procedure: as §1

IRAK1 = IRAK1 (Homo sapiens, UniProt P51617); settings: MOLM-13; 100 nM, 2 hours; Lys2; read-out: Inhibition vs DMSO
Procedure: as §1

MAP2K6 = molecular target: T1, MAP2K6 (Homo sapiens, UniProt P52564); settings: MOLM-13, 2 h, 100 nM
T1 sequence (P52564 1-334): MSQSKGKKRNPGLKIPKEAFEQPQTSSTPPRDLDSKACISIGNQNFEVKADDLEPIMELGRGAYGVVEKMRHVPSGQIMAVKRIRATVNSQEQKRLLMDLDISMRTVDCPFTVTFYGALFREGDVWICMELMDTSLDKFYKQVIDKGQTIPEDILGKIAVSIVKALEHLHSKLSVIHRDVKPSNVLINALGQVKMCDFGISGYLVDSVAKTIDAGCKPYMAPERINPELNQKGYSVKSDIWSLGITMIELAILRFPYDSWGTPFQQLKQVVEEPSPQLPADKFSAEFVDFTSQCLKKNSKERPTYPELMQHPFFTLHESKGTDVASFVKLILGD
Procedure: as §1

MSK1 domain1 = molecular target: T2, MSK1 domain1 (Homo sapiens, UniProt O75582); settings: MOLM-13; 100 nM, 2 hours; Lys2; read-out: Inhibition vs DMSO
T2 construct: MSK1 domain1
Procedure: as §1

MST1 = MST1 (Homo sapiens, UniProt Q13043); settings: 100 nM, 2 hours; Lys1
Procedure: as §1

NEK4 = NEK4 (Homo sapiens, UniProt P51957); settings: MOLM-13; 100 nM, 2 hours; Lys2; read-out: Inhibition vs DMSO
Procedure: as §1

PFTAIRE2 = PFTAIRE2 (Homo sapiens, UniProt Q96Q40); settings: MOLM-13; 100 nM, 2 hours; Lys2; read-out: Inhibition vs DMSO
Procedure: as §1

PIP4K2A = PIP4K2A (Homo sapiens, UniProt P48426); settings: MOLM-13; 100 nM, 2 hours; ATP; read-out: Inhibition vs DMSO
Procedure: as §1

PLK1 = PLK1 (Homo sapiens, UniProt P53350); settings: MOLM-13, 2 h, 100 nM
Procedure: as §1

PRPK = PRPK (Homo sapiens, UniProt Q96S44); settings: MOLM-13; 100 nM, 2 hours; ATP Loop; read-out: Inhibition vs DMSO
Procedure: as §1

RAF1 = RAF1 (Homo sapiens, UniProt P04049); settings: MOLM-13; 100 nM, 2 hours; Lys2; read-out: Inhibition vs DMSO
Procedure: as §1

ULK1 = molecular target: T3, ULK1 (Homo sapiens, UniProt O75385); settings: 100 nM, 2 hours; Lys2
T3 sequence (O75385 1-1050): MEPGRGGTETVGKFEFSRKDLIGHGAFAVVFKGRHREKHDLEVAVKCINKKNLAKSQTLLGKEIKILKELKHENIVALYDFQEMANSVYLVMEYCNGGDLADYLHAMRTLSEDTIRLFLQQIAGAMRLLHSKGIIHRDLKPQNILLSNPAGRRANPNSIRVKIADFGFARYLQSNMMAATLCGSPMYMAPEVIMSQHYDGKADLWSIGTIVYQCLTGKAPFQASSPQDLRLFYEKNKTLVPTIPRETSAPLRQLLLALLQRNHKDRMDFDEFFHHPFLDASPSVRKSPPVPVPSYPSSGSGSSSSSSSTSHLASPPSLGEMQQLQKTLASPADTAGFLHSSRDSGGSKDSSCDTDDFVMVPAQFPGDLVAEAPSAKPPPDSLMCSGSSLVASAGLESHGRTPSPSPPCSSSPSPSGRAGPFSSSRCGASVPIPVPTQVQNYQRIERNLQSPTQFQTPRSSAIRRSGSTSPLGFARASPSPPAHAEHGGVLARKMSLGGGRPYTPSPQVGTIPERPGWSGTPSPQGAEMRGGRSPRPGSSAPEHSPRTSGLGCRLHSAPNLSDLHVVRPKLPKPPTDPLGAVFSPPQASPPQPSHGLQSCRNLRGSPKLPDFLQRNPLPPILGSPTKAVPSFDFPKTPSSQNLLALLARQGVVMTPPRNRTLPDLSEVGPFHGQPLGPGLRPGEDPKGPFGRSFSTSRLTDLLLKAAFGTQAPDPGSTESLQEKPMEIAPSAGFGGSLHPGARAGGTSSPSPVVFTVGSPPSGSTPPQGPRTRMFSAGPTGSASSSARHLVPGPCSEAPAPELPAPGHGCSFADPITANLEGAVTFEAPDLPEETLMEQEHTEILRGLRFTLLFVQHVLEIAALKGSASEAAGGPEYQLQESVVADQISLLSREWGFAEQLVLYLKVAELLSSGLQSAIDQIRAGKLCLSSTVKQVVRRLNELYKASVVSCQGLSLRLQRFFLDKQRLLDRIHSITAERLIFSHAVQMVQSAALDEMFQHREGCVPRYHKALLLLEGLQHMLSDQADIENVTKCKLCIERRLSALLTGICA
Procedure: as §1

[1] = Lys1, read-out: Inhibition vs DMSO
[2] = Lys2, read-out: Inhibition vs DMSO

Chain of CDC2 (P06493 whole entry): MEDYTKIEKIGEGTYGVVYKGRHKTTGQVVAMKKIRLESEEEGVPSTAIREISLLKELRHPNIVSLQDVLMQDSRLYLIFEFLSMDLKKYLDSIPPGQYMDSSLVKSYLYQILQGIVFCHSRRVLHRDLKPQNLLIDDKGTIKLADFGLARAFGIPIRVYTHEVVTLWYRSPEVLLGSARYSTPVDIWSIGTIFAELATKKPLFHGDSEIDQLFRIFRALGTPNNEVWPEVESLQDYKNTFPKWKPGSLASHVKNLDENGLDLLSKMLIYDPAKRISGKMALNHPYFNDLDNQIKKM
Chain of CDK5 (Q00535 whole entry): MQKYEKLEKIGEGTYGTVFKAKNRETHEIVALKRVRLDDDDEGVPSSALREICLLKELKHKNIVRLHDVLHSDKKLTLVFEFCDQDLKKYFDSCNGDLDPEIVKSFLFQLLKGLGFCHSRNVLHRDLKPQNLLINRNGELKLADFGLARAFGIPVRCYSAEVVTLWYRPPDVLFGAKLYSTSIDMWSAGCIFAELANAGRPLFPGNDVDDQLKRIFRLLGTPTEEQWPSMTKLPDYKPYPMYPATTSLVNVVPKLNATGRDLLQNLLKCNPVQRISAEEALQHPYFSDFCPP
Chain of PLK1 (P53350 whole entry): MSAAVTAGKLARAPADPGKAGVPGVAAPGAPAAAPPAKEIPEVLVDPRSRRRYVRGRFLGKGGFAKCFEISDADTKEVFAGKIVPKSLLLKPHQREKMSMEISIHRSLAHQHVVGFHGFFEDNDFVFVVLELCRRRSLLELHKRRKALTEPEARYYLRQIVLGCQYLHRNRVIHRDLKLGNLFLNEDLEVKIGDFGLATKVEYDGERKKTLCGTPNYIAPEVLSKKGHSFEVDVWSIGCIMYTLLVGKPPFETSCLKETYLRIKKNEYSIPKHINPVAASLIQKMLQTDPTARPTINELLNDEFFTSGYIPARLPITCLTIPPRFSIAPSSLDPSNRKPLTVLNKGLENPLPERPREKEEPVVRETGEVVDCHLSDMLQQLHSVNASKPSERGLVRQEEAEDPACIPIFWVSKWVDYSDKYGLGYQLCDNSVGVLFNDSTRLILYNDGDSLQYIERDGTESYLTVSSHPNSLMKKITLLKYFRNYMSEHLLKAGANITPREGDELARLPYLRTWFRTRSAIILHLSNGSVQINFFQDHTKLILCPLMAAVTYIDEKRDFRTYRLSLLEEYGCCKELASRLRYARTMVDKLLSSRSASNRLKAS
Chain of IRAK1 (P51617 whole entry): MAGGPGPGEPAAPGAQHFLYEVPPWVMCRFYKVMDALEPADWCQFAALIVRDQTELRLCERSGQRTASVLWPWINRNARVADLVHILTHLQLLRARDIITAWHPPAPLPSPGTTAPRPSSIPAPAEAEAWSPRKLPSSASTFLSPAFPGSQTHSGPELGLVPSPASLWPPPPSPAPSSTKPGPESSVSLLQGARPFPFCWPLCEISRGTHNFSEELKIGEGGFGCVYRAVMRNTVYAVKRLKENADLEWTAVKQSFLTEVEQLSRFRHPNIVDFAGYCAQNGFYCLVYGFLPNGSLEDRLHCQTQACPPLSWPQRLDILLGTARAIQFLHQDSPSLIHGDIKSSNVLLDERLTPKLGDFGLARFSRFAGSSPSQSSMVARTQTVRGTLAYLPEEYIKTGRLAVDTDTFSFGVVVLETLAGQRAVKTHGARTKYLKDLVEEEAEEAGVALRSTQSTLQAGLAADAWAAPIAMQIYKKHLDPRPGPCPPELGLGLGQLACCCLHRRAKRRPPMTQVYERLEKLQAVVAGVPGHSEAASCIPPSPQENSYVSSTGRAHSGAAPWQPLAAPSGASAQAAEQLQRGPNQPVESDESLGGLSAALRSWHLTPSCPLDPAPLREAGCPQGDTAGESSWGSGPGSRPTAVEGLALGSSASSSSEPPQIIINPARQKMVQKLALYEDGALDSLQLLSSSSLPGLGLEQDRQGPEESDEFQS
Chain of PRPK (Q96S44 whole entry): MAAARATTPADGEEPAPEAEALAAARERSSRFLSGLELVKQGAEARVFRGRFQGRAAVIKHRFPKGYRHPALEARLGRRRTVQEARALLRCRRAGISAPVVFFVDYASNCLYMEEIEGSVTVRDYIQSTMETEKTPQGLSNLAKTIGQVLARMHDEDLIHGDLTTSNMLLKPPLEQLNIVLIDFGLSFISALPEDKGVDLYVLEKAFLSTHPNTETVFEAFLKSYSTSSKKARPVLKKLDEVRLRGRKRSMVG
Chain of PIP4K2A (P48426 whole entry): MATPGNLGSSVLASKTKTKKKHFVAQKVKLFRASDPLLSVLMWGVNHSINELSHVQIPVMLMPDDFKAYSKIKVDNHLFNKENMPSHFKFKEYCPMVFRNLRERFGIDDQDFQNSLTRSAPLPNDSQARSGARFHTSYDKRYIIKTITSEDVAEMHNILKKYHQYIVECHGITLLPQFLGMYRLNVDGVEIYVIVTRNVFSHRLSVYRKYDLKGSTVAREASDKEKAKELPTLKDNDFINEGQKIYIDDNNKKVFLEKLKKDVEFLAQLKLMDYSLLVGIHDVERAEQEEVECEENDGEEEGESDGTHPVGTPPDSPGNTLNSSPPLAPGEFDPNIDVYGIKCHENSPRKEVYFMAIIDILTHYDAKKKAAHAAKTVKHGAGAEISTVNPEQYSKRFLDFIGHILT
Chain of AurB (Q96GD4 whole entry): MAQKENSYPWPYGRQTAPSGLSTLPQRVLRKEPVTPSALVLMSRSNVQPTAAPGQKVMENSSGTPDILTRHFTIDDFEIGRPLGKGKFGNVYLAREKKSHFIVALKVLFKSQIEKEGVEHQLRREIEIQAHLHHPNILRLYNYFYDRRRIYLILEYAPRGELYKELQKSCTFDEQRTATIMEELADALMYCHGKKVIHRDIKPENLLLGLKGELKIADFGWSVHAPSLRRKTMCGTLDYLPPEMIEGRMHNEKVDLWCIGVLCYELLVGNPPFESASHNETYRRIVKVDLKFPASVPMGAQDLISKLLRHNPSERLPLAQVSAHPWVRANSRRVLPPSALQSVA
Chain of NEK4 (P51957 whole entry): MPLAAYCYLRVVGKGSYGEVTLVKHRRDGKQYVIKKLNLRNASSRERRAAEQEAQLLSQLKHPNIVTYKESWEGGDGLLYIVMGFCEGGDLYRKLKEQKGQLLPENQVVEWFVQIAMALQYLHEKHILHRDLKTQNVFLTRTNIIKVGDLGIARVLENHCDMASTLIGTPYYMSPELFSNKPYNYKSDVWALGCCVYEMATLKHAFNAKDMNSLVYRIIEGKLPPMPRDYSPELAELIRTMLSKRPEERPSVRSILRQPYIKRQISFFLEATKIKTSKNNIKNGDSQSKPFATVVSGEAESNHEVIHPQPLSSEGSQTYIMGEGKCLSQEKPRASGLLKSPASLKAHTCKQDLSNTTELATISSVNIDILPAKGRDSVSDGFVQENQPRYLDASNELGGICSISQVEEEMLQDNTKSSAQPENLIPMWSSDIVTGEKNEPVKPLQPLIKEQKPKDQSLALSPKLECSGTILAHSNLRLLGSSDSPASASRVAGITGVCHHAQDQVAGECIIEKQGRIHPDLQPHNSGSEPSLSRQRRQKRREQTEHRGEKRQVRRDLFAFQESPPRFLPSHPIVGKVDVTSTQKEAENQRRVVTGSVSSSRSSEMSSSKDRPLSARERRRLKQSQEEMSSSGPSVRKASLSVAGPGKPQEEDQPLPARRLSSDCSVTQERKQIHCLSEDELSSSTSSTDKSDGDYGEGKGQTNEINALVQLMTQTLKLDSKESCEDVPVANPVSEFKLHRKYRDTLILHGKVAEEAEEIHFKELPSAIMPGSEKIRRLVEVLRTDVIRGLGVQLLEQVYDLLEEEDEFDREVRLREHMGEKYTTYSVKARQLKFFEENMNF
Chain of RAF1 (P04049 whole entry): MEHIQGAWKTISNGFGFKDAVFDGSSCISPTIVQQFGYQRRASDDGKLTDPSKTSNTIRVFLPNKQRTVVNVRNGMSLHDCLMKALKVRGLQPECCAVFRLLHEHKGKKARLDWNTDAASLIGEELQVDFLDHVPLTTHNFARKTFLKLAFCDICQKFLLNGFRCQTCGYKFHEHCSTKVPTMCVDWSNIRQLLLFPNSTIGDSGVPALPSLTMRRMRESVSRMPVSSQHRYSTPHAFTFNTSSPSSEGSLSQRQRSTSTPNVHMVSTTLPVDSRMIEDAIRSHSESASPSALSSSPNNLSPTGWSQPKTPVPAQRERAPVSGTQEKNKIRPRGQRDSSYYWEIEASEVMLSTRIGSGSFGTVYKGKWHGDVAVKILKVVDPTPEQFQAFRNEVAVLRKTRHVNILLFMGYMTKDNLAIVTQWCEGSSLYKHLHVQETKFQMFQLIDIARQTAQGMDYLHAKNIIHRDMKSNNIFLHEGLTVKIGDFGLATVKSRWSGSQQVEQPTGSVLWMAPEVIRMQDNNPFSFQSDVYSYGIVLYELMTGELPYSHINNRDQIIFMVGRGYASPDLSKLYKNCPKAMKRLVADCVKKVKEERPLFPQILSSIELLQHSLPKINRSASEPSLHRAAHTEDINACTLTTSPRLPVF
Chain of PFTAIRE2 (Q96Q40 whole entry): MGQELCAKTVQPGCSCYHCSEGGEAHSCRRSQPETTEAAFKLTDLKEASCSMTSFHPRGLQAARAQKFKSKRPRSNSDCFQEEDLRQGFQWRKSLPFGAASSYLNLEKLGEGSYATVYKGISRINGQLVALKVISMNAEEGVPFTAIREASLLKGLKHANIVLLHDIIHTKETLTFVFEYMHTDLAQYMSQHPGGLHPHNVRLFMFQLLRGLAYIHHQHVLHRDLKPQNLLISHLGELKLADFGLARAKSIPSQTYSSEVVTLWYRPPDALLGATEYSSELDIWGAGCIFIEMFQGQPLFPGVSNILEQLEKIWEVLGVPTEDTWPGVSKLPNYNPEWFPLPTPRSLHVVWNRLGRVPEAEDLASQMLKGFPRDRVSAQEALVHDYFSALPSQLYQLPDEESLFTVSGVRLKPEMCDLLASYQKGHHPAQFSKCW

Compound: CN1CCN(Cc2ccc(Nc3ncc(Cl)c(Nc4ccccc4S(=O)(=O)N(C)C)n3)cc2)CC1 [TP-0903]
- inhibition at 0.1 µM (AurB): 60.1%
- inhibition at 0.1 µM (CDC2; [1]): 2.5%
- inhibition at 0.1 µM (CDC2; [2]): 0.8%
- inhibition at 0.1 µM (CDC2; Protein Kinase Domain, read-out: Inhibition vs DMSO): -40.6%
- inhibition at 0.1 µM (CDK5; [1]): 31.9%
- inhibition at 0.1 µM (CDK5; [2]): 20.7%
- inhibition at 0.1 µM (GSK3A): -8.9%
- inhibition at 0.1 µM (IKKe): 19.3%
- inhibition at 0.1 µM (IRAK1): 43.3%
- inhibition at 0.1 µM (MAP2K6; [1]): -2.4%
- inhibition at 0.1 µM (MAP2K6; [2]): -11.9%
- inhibition at 0.1 µM (MSK1 domain1): -10.3%
- Inhibition vs DMSO (MST1): 42.4%
- inhibition at 0.1 µM (NEK4): -23.8%
- inhibition at 0.1 µM (PFTAIRE2): 16.4%
- inhibition at 0.1 µM (PIP4K2A): -28.1%
- inhibition at 0.1 µM (PLK1; [1]): 4.9%
- inhibition at 0.1 µM (PLK1; [2]): 0.247%
- inhibition at 0.1 µM (PRPK): 29.4%
- inhibition at 0.1 µM (RAF1): 0.349%
- Inhibition vs DMSO (ULK1): 45.8%
